Laboratory results reported in ChEMBL document CHEMBL1147299, “12-epi-teuscordonin and other neoclerodanes from Teucrium bicolor” (J Nat Prod, 1989).

Test system: Artemia salina
Assay: Toxicity to Artemia salina after 24 hrs
Assay type: organism-based
Conditions: in vivo

Compound: C[C@@H]1C[C@@H](O)[C@@]23COC(=O)[C@@H]2CCC[C@@H]3[C@@]12C[C@@H](c1ccoc1)OC2=O
- LC50: > 500 ppm

Compound: CC(=O)OC[C@@]12[C@@H](OC(C)=O)C[C@@H](C)[C@]3(C[C@H](c4ccoc4)OC3=O)[C@H]1CCC[C@]21CO1 [MONTANIN C]
- LC50: 66.4 ppm

Compound: C[C@@H]1C[C@@H]2OC(=O)C3=C2[C@H](CCC3)[C@@]12C[C@@H](c1ccoc1)OC2=O [TEUCVIN]
- LC50: > 500 ppm
